Laboratory results from US11325900B2, “5-(pyrimidin-4-yl)thiazol-2-yl urea derivatives as therapeutic agents” (AUCENTRA HOLDINGS PTY LTD, priority 2018, dated 2022).

Tests used:
[1] = tested on: acute myeloid leukaemia (AML) cell lines; conditions: background; cited from earlier work
mouse model of AML = conditions: background; cited from earlier work
MV-4-11 = experiment: Cell viability assay (resazurin, leukemia cell lines), 72 h growth inhibition; assay type: cell-based; conditions: Homo sapiens, MV4-11, MV-4-11 cells
From the text: (§1) Compounds from Example 1 may be subjected to a standard MTT (3-(4,5-dimethylthiazol-2-yl)-2,5-diphenyltetrazolium bromide) and resazurin assays on solid tumour cell lines and leukemia cell lines, respectively, as previously reported (Wang S et al., J Med Chem 47:1662-1675, 2004 and Diab S e al. CheMedChem 9:962-972, 2014). Compound concentrations required to inhibit 50% of cell growth (GI50) can be calculated using non-linear regression analysis.

HCT-116 = experiment: Cell viability assay (MTT, solid tumour cell lines), 72 h growth inhibition; assay type: cell-based; conditions: Homo sapiens, HCT-116 cells
From the text: as §1

CDK8/CycC = target: T1, CDK8/CycC (Homo sapiens, UniProt P49336); experiment: Radiometric protein kinase assay (33PanQinase Activity Assay, ProQinase); assay type: biochemical; conditions: 1.0 μM ATP, 1.0 μg/50 μL substrate RBER-IRStide, duplicate measurements, read-out: CDK8 Kinase inhibition IC50
T1 construct: purchased ProQinase GmbH, Freiburg, Germany
Method: The kinase activity of CDK8/CycC was measured using a radiometric protein kinase assay (33PanQinase® Activity Assay) by ProQinase GmbH, Freiburg, Germany, with the protocols shown at www.proqinase.com/sites/default/files/public/uploads/WildtypeProfiler/radiometric_assay_v05_2012_manual.pdf. IC50 determination (8.3 nM with 1.0 μM ATP and 1.0 μg/50 μL of substrate RBER-IRStide) was performed as duplicate measurements and calculated using Quattro Workflow V3.1.1 (Quattro Research GmbH, Germany). Apparent inhibition constants (Ki) values were calculated from Km (ATP) and IC50 values for the respective kinases.

T1 sequence (P49336 whole entry): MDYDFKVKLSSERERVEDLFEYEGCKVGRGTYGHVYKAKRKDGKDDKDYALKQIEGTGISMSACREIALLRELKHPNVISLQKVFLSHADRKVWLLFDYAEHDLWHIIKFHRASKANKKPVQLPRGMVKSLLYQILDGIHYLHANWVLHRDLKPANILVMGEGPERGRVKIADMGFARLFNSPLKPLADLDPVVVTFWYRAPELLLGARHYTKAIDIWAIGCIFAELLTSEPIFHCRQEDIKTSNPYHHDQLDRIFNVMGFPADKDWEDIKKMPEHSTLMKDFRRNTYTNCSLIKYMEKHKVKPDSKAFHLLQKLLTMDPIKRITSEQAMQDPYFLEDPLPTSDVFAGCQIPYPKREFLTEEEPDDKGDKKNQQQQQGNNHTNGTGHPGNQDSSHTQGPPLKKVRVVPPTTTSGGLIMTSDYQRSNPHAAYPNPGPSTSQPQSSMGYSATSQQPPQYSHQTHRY
T1 sequence (P24863 whole entry partner): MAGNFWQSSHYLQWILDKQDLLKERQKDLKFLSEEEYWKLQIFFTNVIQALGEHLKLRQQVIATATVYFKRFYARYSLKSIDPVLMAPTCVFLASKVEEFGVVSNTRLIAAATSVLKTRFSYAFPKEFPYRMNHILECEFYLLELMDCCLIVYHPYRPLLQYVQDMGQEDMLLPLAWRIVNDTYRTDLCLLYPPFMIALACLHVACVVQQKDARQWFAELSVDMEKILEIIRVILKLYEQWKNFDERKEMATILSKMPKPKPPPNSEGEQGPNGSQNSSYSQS

Compound	Suppression of cell growth (in words) [1]	Anticancer activity (in words) (mouse model of AML)	GI50 (MV-4-11) [nM]	GI50 (HCT-116) [nM]	IC50 (CDK8/CycC) [nM]
cortistatin A	suppress cell growth	shows anticancer activity	–	–	–
CNc1nccc(-c2sc(NC(=O)Nc3ccccc3OC)nc2C)n1 [Compound 4, 1-(2-Methoxyphenyl)-3-(4-methyl-5-(2-(methylamino)pyrimidin-4-yl)thiazol-2-yl)urea]	–	–	457 ± 180	537 ± 140	49
CNc1nccc(-c2sc(NC(=O)Nc3cccc(C)c3)nc2C)n1 [Compound 13, 1-(4-Methyl-5-(2-(methylamino)pyrimidin-4-yl)thiazol-2-yl)-3-(m-tolyl)urea]	–	–	3900 ± 1100	2770 ± 210	6
CNc1nccc(-c2sc(NC(=O)Nc3cc(C(F)(F)F)ccc3C(F)(F)F)nc2C)n1 [Compound 9, 1-(2,5-Bis(trifluoromethyl)phenyl)-3-(4-methyl-5-(2-(methylamino)-pyrimidin-4-yl)thiazol-2-yl)urea]	–	–	526 ± 40	519 ± 160	41
CNc1nccc(-c2sc(NC(=O)Nc3ccc(F)c(C(F)(F)F)c3)nc2C)n1 [Compound 25, 1-(4-Fluoro-3-(trifluoromethyl)phenyl)-3-(4-methyl-5-(2-(methylamino)-pyrimidin-4-yl)thiazol-2-yl)urea]	–	–	2230 ± 140	5850 ± 1140	13
CNc1nccc(-c2sc(NC(=O)Nc3cccc(OC(F)F)c3)nc2C)n1 [Compound 20, 1-(3-(Difluoromethoxy)phenyl)-3-(4-methyl-5-(2-(methylamino)-pyrimidin-4-yl)thiazol-2-yl)urea]	–	–	939 ± 60	4530 ± 980	6
Cc1nc(NC(=O)Nc2cccc(C(F)(F)F)c2)sc1-c1ccnc(N)n1 [Compound 51, 1-(5-(2-Aminopyrimidin-4-yl)-4-methylthiazol-2-yl)-3-(3-(trifluoromethyl)phenyl)urea]	–	–	5710 ± 590	4320 ± 410	60
CNc1nccc(-c2sc(NC(=O)Nc3cccc(S(=O)(=O)C(F)(F)F)c3)nc2C)n1 [Compound 23, 1-(4-Methyl-5-(2-(methylamino)pyrimidin-4-yl)-thiazol-2-yl)-3-(3-((trifluoromethyl)-sulfonyl)phenyl)urea]	–	–	3170 ± 530	4960 ± 120	26
CNc1nccc(-c2sc(NC(=O)Nc3cccc(Br)c3)nc2C)n1 [Compound 12, 1-(3-Bromophenyl)-3-(4-methyl-5-(2-(methylamino)pyrimidin-4-yl)thiazol-2-yl)urea]	–	–	2110 ± 1640	6400 ± 270	7
CNc1nccc(-c2sc(NC(=O)Nc3ccccc3)nc2C)n1 [Compound 1, 1-(4-Methyl-5-(2-(methylamino)pyrimidin-4-yl)thiazol-2-yl)-3-phenylurea]	–	–	639 ± 120	1510 ± 60	36
CNc1nccc(-c2sc(NC(=O)Nc3cccc(C(F)(F)F)c3)nc2C)n1 [Compound 10, 1-(4-Methyl-5-(2-(methylamino)-pyrimidin-4-yl)thiazol-2-yl)-3-(3-(trifluoromethyl)phenyl)urea]	–	–	870 ± 360	510 ± 30	10
CNc1nccc(-c2sc(NC(=O)Nc3ccc(Cl)cc3)nc2C)n1 [Compound 43]	–	–	1520 ± 800	5960 ± 440	9
CNc1nccc(-c2sc(NC(=O)Nc3cccc([N+](=O)[O-])c3)nc2C)n1 [Compound 14, 1-(4-Methyl-5-(2-(methylamino)pyrimidin-4-yl)thiazol-2-yl)-3-(3-nitrophenyl)urea]	–	–	585 ± 30	5080 ± 820	10
CNc1nccc(-c2sc(NC(=O)Nc3ccc(Cl)c(C(F)(F)F)c3)nc2C)n1 [Compound 24, 1-(4-Chloro-3-(trifluoromethyl)-phenyl)-3-(4-methyl-5-(2-(methylamino)-pyrimidin-4-yl)thiazol-2-yl)urea]	–	–	3480 ± 9530	7250 ± 310	12
CNc1nccc(-c2sc(NC(=O)Nc3ccc(Cl)c(C)c3)nc2C)n1 [Compound 30, 1-(4-Chloro-3-methylphenyl)-3-(4-methyl-5-(2-(methylamino)-pyrimidin-4-yl)thiazol-2-yl)urea]	–	–	4390 ± 1020	2350 ± 3210	8
CNc1nccc(-c2sc(NC(=O)Nc3ccc(C(F)(F)F)c(F)c3)nc2C)n1 [Compound 28, 1-(3-Fluoro-4-(trifluoromethyl)phenyl)-3-(4-methyl-5-(2-(methylamino)-pyrimidin-4-yl)thiazol-2-yl)urea]	–	–	3280 ± 640	772 ± 250	26
CNc1nccc(-c2sc(NC(=O)Nc3ccc(C)cc3)nc2C)n1 [Compound 44, 1-(4-Methyl-5-(2-(methylamino)pyrimidin-4-yl)thiazol-2-yl)-3-(p-tolyl)urea]	–	–	2600 ± 460	2370 ± 50	7
CNc1nccc(-c2sc(NC(=O)Nc3cccc(Cl)c3)nc2C)n1 [Compound 11, 1-(3-Chlorophenyl)-3-(4-methyl-5-(2-(methylamino)pyrimidin-4-yl)thiazol-2-yl)urea]	–	–	1480 ± 1320	693 ± 30	33
CNc1nccc(-c2sc(NC(=O)Nc3ccc(CN4CCN(C)CC4)c(C(F)(F)F)c3)nc2C)n1 [Compound 32, 1-(4-Methyl-5-(2-(methylamino)-pyrimidin-4-yl)thiazol-2-yl)-3-(4-((4-methylpiperazin-1-yl)methyl)-3-(trifluoromethyl)phenyl)urea]	–	–	< 1	366 ± 90	12
CNc1nccc(-c2sc(NC(=O)Nc3cccc(C#N)c3)nc2C)n1 [Compound 15, 1-(3-Cyanophenyl)-3-(4-methyl-5-(2-(methylamino)pyrimidin-4-yl)thiazol-2-yl)urea]	–	–	565 ± 40	6250 ± 610	8
Cc1nc(NC(=O)Nc2cccc(Cl)c2)sc1-c1ccnc(N(C)C)n1 [Compound 47, 1-(3-Chlorophenyl)-3-(5-(2-(dimethylamino)pyrimidin-4-yl)-4-methylthiazol-2-yl)urea]	–	–	5280 ± 150	5770 ± 420	38
CNc1nccc(-c2sc(NC(=O)Nc3cccc(SC(F)(F)F)c3)nc2C)n1 [Compound 22, 1-(4-Methyl-5-(2-(methylamino)-pyrimidin-4-yl)thiazol-2-yl)-3-(3-((trifluoromethyl)thio)phenyl)urea]	–	–	4630 ± 1560	4310 ± 750	20
Cc1nc(NC(=O)Nc2cccc(C(F)(F)F)c2)sc1-c1ccnc(N(C)C)n1 [Compound 46, 1-(5-(2-(Dimethylamino)pyrimidin-4-yl)-4-methylthiazol-2-yl)-3-(3-(trifluoromethyl)phenyl)urea]	–	–	5500 ± 490	35000 ± 11800	41
CNc1nccc(-c2sc(NC(=O)Nc3ccc(OC)cc3)nc2C)n1 [Compound 45, 1-(4-Methoxyphenyl)-3-(4-methyl-5-(2-(methylamino)pyrimidin-4-yl)thiazol-2-yl)urea]	–	–	756 ± 120	3040 ± 530	11
CNc1nccc(-c2sc(NC(=O)Nc3ccc(C)c(C(F)(F)F)c3)nc2C)n1 [Compound 26, 1-(4-Methyl-3-(trifluoromethyl)-phenyl)-3-(4-methyl-5-(2-(methylamino)pyrimidin-4-yl)thiazol-2-yl)urea]	–	–	2560 ± 490	5100 ± 660	15
CNc1nccc(-c2sc(NC(=O)Nc3ccccc3F)nc2C)n1 [Compound 3, 1-(2-Fluorophenyl)-3-(4-methyl-5-(2-(methylamino)pyrimidin-4-yl)thiazol-2-yl)urea]	–	–	952 ± 200	1590 ± 60	42
CNc1nccc(-c2sc(NC(=O)Nc3ccc(C(F)(F)F)c(C(F)(F)F)c3)nc2C)n1 [Compound 27, 1-(3,4-Bis(trifluoromethyl)phenyl)-3-(4-methyl-5-(2-(methylamino)-pyrimidin-4-yl)thiazol-2-yl)urea]	–	–	4160 ± 800	5640 ± 320	53
CCN1CCN(Cc2ccc(NC(=O)Nc3nc(C)c(-c4ccnc(NC)n4)s3)cc2C(F)(F)F)CC1 [Compound 33, 1-(4-((4-Ethylpiperazin-1-yl)methyl)-3-(trifluoromethyl)phenyl)-3-(4-methyl-5-(2-(methylamino)-pyrimidin-4-yl)thiazol-2-yl)urea]	–	–	< 1	457 ± 30	10
CNc1nccc(-c2sc(NC(=O)Nc3ccc(C(F)(F)F)c(Cl)c3)nc2C)n1 [Compound 5, 1-(3-Chloro-4-(trifluoromethyl)-phenyl)-3-(4-methyl-5-(2-(methylamino)pyrimidin-4-yl)thiazol-2-yl)urea]	–	–	3810 ± 580	7100 ± 960	25
CNc1nccc(-c2sc(NC(=O)Nc3cccc(C(C)C)c3)nc2C)n1 [Compound 17, 1-(3-Isopropylphenyl)-3-(4-methyl-5-(2-(methylamino)pyrimidin-4-yl)thiazol-2-yl)urea]	–	–	3510 ± 790	5970 ± 723	15
